Experimental data published in PubChem BioAssay AID330 (DTP/NCI, 2004).
“And” between values parts separate entries of the source, which are not always exact repeats. Identical values can stand only once. Inconclusive results and toxic doses are left out. How the source made its calls: active means survival T/C of 150% or more; inactive means T/C below 125% in these data.

Tested on: P388 leukemia ip, CD2F1 mice, survival T/C
Test: NCI In Vivo Anticancer Drug Screen. Data for tumor model P388 Leukemia (intraperitoneal) in CD2F1 (CDF1) mice
Details: endpoint: median survival time, higher = longer survival
In short: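 Mice carrying the transplanted tumor received test compound or vehicle. Survival was recorded in each group, and the value is the treated-group measurement divided by that of the vehicle-treated control group.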

[1] = dose: 50.0 mg/kg/injection, schedule: Q01DX009 (ip), vehicle: Klucel (hydroxypropylcellulose) (HPC)
[2] = dose: 100.0 mg/kg/injection, schedule: Q01DX009 (ip), vehicle: Klucel (hydroxypropylcellulose) (HPC)
[3] = dose: 200.0 mg/kg/injection, schedule: Q01DX009 (ip), vehicle: Klucel (hydroxypropylcellulose) (HPC)
[4] = dose: 50.0 mg/kg/injection, schedule: Q01DX005 (ip), vehicle: saline with Tween-80

Measured: T/C

COC1/C=C\C=C(/C)C(=O)NC2=CC(=O)C(NC3CC3)=C(CC(C)CC(OC)C(O)C(C)/C=C(/C)C1OC(N)=O)C2=O (configuration not stated)
inactive: dose: 12.5 mg/kg/injection, schedule: Q04DX002 (ip), vehicle: saline with Tween-80 107 % of control | dose: 18.75 mg/kg/injection, schedule: Q04DX002 (ip), vehicle: saline with Tween-80 108 % of control | dose: 25.0 mg/kg/injection, schedule: Q04DX002 (ip), vehicle: saline with Tween-80 107 % of control and 113 % of control | dose: 37.5 mg/kg/injection, schedule: Q04DX002 (ip), vehicle: saline with Tween-80 108 % of control | dose: 50.0 mg/kg/injection, schedule: Q04DX002 (ip), vehicle: saline with Tween-80 111 % of control and 113 % of control | dose: 75.0 mg/kg/injection, schedule: Q04DX002 (ip), vehicle: saline with Tween-80 117 % of control | dose: 100.0 mg/kg/injection, schedule: Q04DX002 (ip), vehicle: saline with Tween-80 120 % of control and 88 % of control

COc1ccccc1NC(=O)C1=C(C)NC(C)=C(C(=O)Nc2ccccc2OC)C1c1cccc([N+](=O)[O-])c1
inactive: dose: 60.0 mg/kg/injection, schedule: Q01DX005 (ip), vehicle: Klucel (hydroxypropylcellulose) (HPC) 92 % of control | dose: 120.0 mg/kg/injection, schedule: Q01DX005 (ip), vehicle: Klucel (hydroxypropylcellulose) (HPC) 88 % of control

CCOC(=O)Nc1cc(Cl)ccc1O
inactive: dose: 100.0 mg/kg/injection, schedule: Q04DX003 (ip), vehicle: saline with Tween-80 90 % of control | dose: 200.0 mg/kg/injection, schedule: Q04DX003 (ip), vehicle: saline with Tween-80 90 % of control | dose: 400.0 mg/kg/injection, schedule: Q04DX003 (ip), vehicle: saline with Tween-80 90 % of control

Clc1ccc2nsnc2c1
inactive: dose: 6.25 mg/kg/injection, schedule: Q01DX009 (ip), vehicle: saline with Tween-80 101 % of control | dose: 12.5 mg/kg/injection, schedule: Q01DX009 (ip), vehicle: saline with Tween-80 95 % of control | dose: 25.0 mg/kg/injection, schedule: Q01DX009 (ip), vehicle: saline with Tween-80 95 % of control | [1] 101 % of control | dose: 50.0 mg/kg/injection, schedule: Q01DX009 (ip), vehicle: saline with Tween-80 104 % of control | [2] 107 % of control | dose: 100.0 mg/kg/injection, schedule: Q01DX009 (ip), vehicle: saline with Tween-80 104 % of control | [3] 108 % of control | dose: 200.0 mg/kg/injection, schedule: Q01DX009 (ip), vehicle: saline with Tween-80 95 % of control

Cc1oc2ccccc2c(=O)c1C(=O)O
inactive: dose: 50.0 mg/kg/injection, schedule: Q01DX005 (ip), vehicle: Klucel (hydroxypropylcellulose) (HPC) 99 % of control | dose: 100.0 mg/kg/injection, schedule: Q01DX005 (ip), vehicle: Klucel (hydroxypropylcellulose) (HPC) 100 % of control | dose: 200.0 mg/kg/injection, schedule: Q01DX005 (ip), vehicle: Klucel (hydroxypropylcellulose) (HPC) 101 % of control

CN=C(NN(C)C)c1ccc(NC(=O)c2ccc(C(=O)Nc3ccc(C(=NC)NN(C)C)cc3)cc2)cc1
inactive: dose: 3.3 mg/kg/injection, schedule: Q01DX009 (ip), vehicle: saline with Tween-80 115 % of control | dose: 4.3 mg/kg/injection, schedule: Q01DX009 (ip), vehicle: saline with Tween-80 118 % of control | dose: 13.2 mg/kg/injection, schedule: Q04DX003 (ip), vehicle: saline with Tween-80 91 % of control

CCCCN(CCCC)CCC(=O)c1ccc(Cl)c2ccccc12
inactive: dose: 25.0 mg/kg/injection, schedule: Q01DX005 (ip), vehicle: saline with Tween-80 97 % of control | [4] 105 % of control

CC(=O)NC1C=CC(=O)O1 (configuration not stated)
inactive: dose: 2.1 mg/kg/injection, schedule: Q01DX010 (ip), vehicle: saline 104 % of control

C[Si](C)(C)C1=CC[C@H]2C(=O)N(c3ccccc3)C(=O)[C@H]2C1=O
inactive: [4] 107 % of control | dose: 100.0 mg/kg/injection, schedule: Q01DX005 (ip), vehicle: saline with Tween-80 118 % of control | dose: 200.0 mg/kg/injection, schedule: Q01DX005 (ip), vehicle: saline with Tween-80 111 % of control

N=c1nc(N)c2ncc(/C=C/c3ccccc3)n(O)c-2n1
inactive: dose: 15.0 mg/kg/injection, schedule: Q01DX009 (ip), vehicle: saline 97 % of control | dose: 30.0 mg/kg/injection, schedule: Q01DX009 (ip), vehicle: saline 101 % of control | dose: 60.0 mg/kg/injection, schedule: Q01DX009 (ip), vehicle: saline 101 % of control

Cc1cc(NC(=S)SCc2ccc3c(c2)OCO3)ccc1Cl
inactive: [1] 112 % of control | dose: 50.0 mg/kg/injection, schedule: Q01DX009 (ip), vehicle: suspension in saline 91 % of control | [2] 122 % of control | dose: 100.0 mg/kg/injection, schedule: Q01DX009 (ip), vehicle: suspension in saline 94 % of control | [3] 114 % of control | dose: 200.0 mg/kg/injection, schedule: Q01DX009 (ip), vehicle: suspension in saline 90 % of control
